# Earlier results as cited in patent publication US20110237925A1, “MICRONEEDLE ARRAY CHIP, DEVICE AND PATCH FOR TRANSDERMAL DRUG DELIVERY UTILIZING THE SAME, AND PREPARATION METHOD THEROF” (priority 2010, published 2011).
# Conditions: solid silicon microneedle array prepared through MEMS technology
smiles,measurement,value
O=C(O)CN(CC(=O)O)Cc1cc2c(cc1O)Oc1cc(O)c(CN(CC(=O)O)CC(=O)O)cc1C21OC(=O)c2ccccc21 [calcein],increase of the transdermal permeability,four orders of magnitude
